*1 amine or outer side, *2 acyl side, *3 side chain or, on linkers, in order; H or OH if unused. Where a SMILES comes first, the peptide text is derived from it. Side-chain parts run from the residue outwards. [ ]: non-standard residue; d: D form. The star is where a group is joined. C16 diacid = O=C(O)CCCCCCCCCCCCCCC(=O)*; γGlu = O=C(O)[C@H](CCC(=O)[*:2])N[*:1]; NMeI = CC[C@H](C)[C@H](NC)C(=O)O; Propionyl = CCC(=O)*
Key:
[1] = molecular target: T1, human CRF2a receptor (Homo sapiens, UniProt Q13324); assay: Activity at human CRF2a receptor, cAMP functional assay in TeloHEAC cells; assay type: cell-based; conditions: TeloHEAC cells stably expressing human CRF2a receptor, relative to urocortin 2 (100 nM = 100%)
T1 construct: expressed in transfected cells; host or cells: TeloHEAC cells
T1 sequence (Q13324 1-411): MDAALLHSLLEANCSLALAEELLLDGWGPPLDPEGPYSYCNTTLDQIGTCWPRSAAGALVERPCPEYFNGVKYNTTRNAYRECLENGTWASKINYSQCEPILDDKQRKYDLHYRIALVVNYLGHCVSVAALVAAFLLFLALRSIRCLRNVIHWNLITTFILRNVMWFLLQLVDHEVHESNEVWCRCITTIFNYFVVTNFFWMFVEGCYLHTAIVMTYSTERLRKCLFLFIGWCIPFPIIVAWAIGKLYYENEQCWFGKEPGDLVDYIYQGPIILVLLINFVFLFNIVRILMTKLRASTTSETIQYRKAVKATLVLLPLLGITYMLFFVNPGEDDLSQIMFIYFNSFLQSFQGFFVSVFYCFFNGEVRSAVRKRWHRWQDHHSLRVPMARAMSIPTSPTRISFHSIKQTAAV
Method: Agonism of compounds for human corticotropin-releasing factor 2a (CRF2a receptor) was determined by a functional assay measuring cAMP modulation upon treatment of TeloHEAC cells stably expressing human CRF2a receptor. Compounds were dissolved at 0.5 mM in 100% DMSO and serially diluted (1:2) in 100% DMSO for 16 dilutions. 20 nL of each dilution was then transferred to 384-well assay plate using an acoustic droplet ejection instrument. 5 μL of compound buffer (1×HBSS; 20 mM HEPES,) were then added to each well. Prior to use, frozen cells were thawed quickly at 37° C. and washed (5 min at 900 rpm) with 20 mL cell buffer (1×HBSS; 20 mM HEPES). Cells were resuspended in cell buffer added with 2 mM IBMX and adjusted to a cell density of […]. 5 μL cells (final dell density: 10000 cells/well) were dispensed in the compound-containing 384-well assay plate and incubated for 30 minutes 37° C. The cAMP level in treated cells was determined using the Cisbio 62AM4PEC kit according to manufacturer's instruction. Finally, plates were incubated for 1 h at room temperature before measuring the fluorescence ratio between 665/620 nm. The percent activity value (E %) was calculated by setting 100 nM of urocortin 2 (UCN2) as 100%. The in vitro potency of the compounds was quantified by determining the concentrations that caused 50% activation of maximal response (EC50) relative to urocortin 2.

[2] = molecular target: T2, CFR1R receptor (Homo sapiens, UniProt P34998); assay: Activity at anti-target CFR1R receptor, cAMP assay in CRF1R-overexpression CHO-K1 cells; assay type: cell-based; conditions: 100% = Sauvagine at 100 nM
T2 construct: host or cells: CHO-K1 (clone 2)
T2 sequence (P34998 24-415): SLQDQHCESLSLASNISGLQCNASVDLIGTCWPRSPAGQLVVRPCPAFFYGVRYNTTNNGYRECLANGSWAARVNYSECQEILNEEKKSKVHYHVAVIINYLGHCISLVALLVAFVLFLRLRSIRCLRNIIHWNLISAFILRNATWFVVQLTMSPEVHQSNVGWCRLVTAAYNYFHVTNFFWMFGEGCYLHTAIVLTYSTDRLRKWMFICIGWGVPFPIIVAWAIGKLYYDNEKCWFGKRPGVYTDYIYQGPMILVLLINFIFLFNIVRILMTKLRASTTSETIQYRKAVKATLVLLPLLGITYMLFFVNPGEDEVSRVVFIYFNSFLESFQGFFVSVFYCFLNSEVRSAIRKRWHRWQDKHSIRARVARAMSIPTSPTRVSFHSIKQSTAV
Method: Assessment of activity at anti-target CFR1R receptor is done using the same procedure as the one described for the TeloHEAC cell line. The CRF1R-overexpression CHO-K1 cell line clone 2 was purchased from PerkinElmer. Cells were grown in a 10 cm dish at 37° C./5% CO2 in medium (F12 (Hams)/10% FBS/400 μg/ml G418) to near confluence. At that stage, cells were harvested, resuspended to 10 million/mL in culture medium without G418 and with 10% DMSO. 1 mL vial aliquots were slowly frozen to −80° C. in isopropanol and then transferred in liquid nitrogen for storage. These vials were used to run the experiment following the procedure reported in the previous paragraph, except for the compound used in the control well to define the 100% activation (Sauvagine at 100 nM) and the cell density (final cell density: 4000 cells/well)

EC50 [1] [nM] | Emax (% I) [2] [% I] | Compound
0.09 | 48 | CC[C@H](C)[C@H](NC)C(=O)N[C@H](C(=O)N[C@@H](CC(C)C)C(=O)N[C@@H](CO)C(=O)N[C@@H](CC(C)C)C(=O)N[C@@H](CC(=O)O)C(=O)N[C@@H](C(=O)N1CCC[C@H]1C(=O)N[C@H](C(=O)N[C@@H](CCCCN)C(=O)N[C@@H](CC(C)C)C(=O)N[C@@H](CCCCNC(=O)CC[C@H](NC(=O)CCCCCCCCCCCCCCC(=O)O)C(=O)O)C(=O)N[C@@H](CCC(N)=O)C(=O)N[C@H](C(=O)N[C@@H](CC(C)C)C(=O)N[C@@H](CC(C)C)C(=O)N[C@@H](CCCCN)C(=O)N[C@@H](CCC(N)=O)C(=O)N[C@@H](CCC(=O)O)C(=O)N[C@@H](CCCNC(=N)N)C(=O)N[C@@H](CCC(N)=O)C(=O)N[C@@H](CCCCN)C(=O)N[C@@H](CCCCN)C(=O)N[C@@H](CCC(N)=O)C(=O)N[C@@H](CCCNC(=N)N)C(=O)N[C@@H](CCC(=O)O)C(=O)N[C@@H](CCC(N)=O)C(=O)N[C@@H](C)C(=O)N[C@@H](CCC(=O)O)C(=O)N[C@@H](CCCCN)C(=O)N[C@@H](CC(N)=O)C(=O)N[C@@H](CCCCN)C(=O)N[C@@H](CCC(N)=O)C(=O)N[C@H](C(=O)N[C@@H](CC(C)C)C(=O)N[C@@H](CCC(=O)O)C(=O)N[C@@H](CCC(N)=O)C(=O)N[C@H](C(N)=O)C(C)C)[C@@H](C)CC)[C@@H](C)CC)[C@@H](C)CC)C(C)C)C(C)C [SEQ ID No. 5, reference compound] (H-[NMeI]VLSLD[dV]PIKLK([γGlu-C16 diacid])QILLKQERQKKQREQAEKNKQILEQV-NH2)
0.09 | 56 | CCC(=O)N[C@H](C(=O)N[C@@H](CC(C)C)C(=O)N[C@@H](CO)C(=O)N[C@@H](CC(C)C)C(=O)N[C@@H](CC(=O)O)C(=O)N[C@@H](C(=O)N1CCC[C@H]1C(=O)N[C@H](C(=O)N[C@@H](CCCCN)C(=O)N[C@@H](CC(C)C)C(=O)N[C@@H](CCCCNC(=O)CC[C@H](NC(=O)CCCCCCCCCCCCCCC(=O)O)C(=O)O)C(=O)N[C@@H](CCC(N)=O)C(=O)N[C@H](C(=O)N[C@@H](CC(C)C)C(=O)N[C@@H](CC(C)C)C(=O)N[C@@H](CCCCN)C(=O)N[C@@H](CCC(N)=O)C(=O)N[C@@H](CCC(=O)O)C(=O)N[C@@H](CCCNC(=N)N)C(=O)N[C@@H](CCC(N)=O)C(=O)N[C@@H](CCCCN)C(=O)N[C@@H](CCCCN)C(=O)N[C@@H](CCC(N)=O)C(=O)N[C@@H](CCCNC(=N)N)C(=O)N[C@@H](CCC(=O)O)C(=O)N[C@@H](CCC(N)=O)C(=O)N[C@@H](C)C(=O)N[C@@H](CCC(=O)O)C(=O)N[C@@H](CCCCN)C(=O)N[C@@H](CC(N)=O)C(=O)N[C@@H](CCCCN)C(=O)N[C@@H](CCC(N)=O)C(=O)N[C@H](C(=O)N[C@@H](CC(C)C)C(=O)N[C@@H](CCC(=O)O)C(=O)N[C@@H](CCC(N)=O)C(=O)N[C@H](C(N)=O)C(C)C)[C@@H](C)CC)[C@@H](C)CC)[C@@H](C)CC)C(C)C)C(C)C [compound 6] (Propionyl-VLSLD[dV]PIKLK([γGlu-C16 diacid])QILLKQERQKKQREQAEKNKQILEQV-NH2)
